Measurements reported in US20220378046A1, “EFFECTS OF NF-kB SIGNALING INHIBITORS ON BED BUG RESISTANCE TO ORALLY PROVISIONED ENTOMOPATHOGENIC BACTERIA” (South Dakota Board of Regents, priority 2021, published 2022).
Like-named read-outs stand apart in the source and are kept apart here.

Experiments:
[1] = tested on: Bacillus thuringiensis israelensis; assay: Direct effects of NF-kB signaling inhibitors on growth of B. thuringiensis israelensis cultures (OD600); format: cell-based; conditions: 10 μg/mL; LB medium; shaken overnight at room temperature
Description: (§1) The effects of NF-kB signaling inhibitors were further assessed on growth of bacterial entomopathogen cultures. Two bacterial entomopathogens were used in the present example. The Gram-positive bacterium B. thuringiensis israelensis was obtained from Carolina Biological Supply (Burlington, N.C., USA). This bacterium was investigated due to its potential activity against bed bugs when ingested. The Gram-negative bacterium P. entomophila was obtained from the German Collection of Microorganisms and Cell Cultures (DSMZ, Braunschweig, Germany). Stocks of these bacteria were grown overnight in Luria-Bertani (LB) medium on a shaker at room temperature.
(§2) To determine if the inhibitors had any direct impact on the growth of entomopathogenic bacteria prior to their administration in vivo, cultures of each bacterium were inoculated into LB medium and individual inhibitors were added to the cultures at a final concentration of 10 μg/mL. Cultures containing equal volumes of DMSO diluent served as controls. After shaking overnight at room temperature, growth of bacteria in the presence of inhibitors was quantified by measuring optical density of the cultures at 600 nm (OD600) on a spectrophotomer. OD600 values of cultures containing inhibitors were then normalized to DMSO controls. Three replicates were conducted with each inhibitor and growth was compared to controls (set at 1) using a one-sample t-test.

Cimex lectularius [2] = assay: Three-day survivorship of bed bugs fed NF-kB signaling inhibitors combined with B. thuringiensis israelensis; format: in vivo; conditions: 10 μg/mL inhibitor in blood meal with bacteria; three days; Gehan-Breslow test p=0.86
Method: (§3) For the following non-limiting Examples, the Cincinnati SRL strain of Cimex lectularius was used for the population of bed bugs. This strain was derived from a population of individuals collected by technicians from Sierra Research Laboratories, Inc. (Modesto, Calif.) in 2007 and has been maintained under laboratory conditions since this time. Colonies were maintained at the University of South Dakota in plastic jars containing corrugated cardboard harborages at 28 +/−1° C. and 60-70% relative humidity on a 12:12 photoperiod. The colonies were fed aseptically collected defibrinated rabbit blood (Hemostat Laboratories, Dixon, Calif.) once per week using an artificial membrane system (Hemotek Ltd., Blackburn, United Kingdom).
The effect of the combination treatment of NF-kB signaling inhibitors and bacterial entomopathogens on bed bug resistance to the bacterial entomopathogens was analyzed. To determine if NF-kB signaling inhibitors could reduce resistance to orally provisioned entomopathogenic bacteria, cultures of each bacterium were grown overnight by shaking at room temperature. […] The evaluated inhibitors or DMSO diluent were added to the blood meal containing diluted bacteria to a final concentration of 10 ug/mL. […] Short-term mortality was then monitored over a period of three days. […]

Cimex lectularius [3] = assay: Three-day survivorship of bed bugs fed P. entomophila alone or combined with NF-kB signaling inhibitors; format: in vivo; conditions: for effect on mortality during P. entomophila infection: 10 μg/mL inhibitor in blood meal with P. entomophila, three days, relative to bacterium alone; for mortality at 10 µg/mL: Cimex lectularius, P. entomophila combined with 10 μg/mL inhibitor in blood meal
Method: as §3
The effect of the combination treatment of NF-kB signaling inhibitors and bacterial entomopathogens on bed bug resistance to the bacterial entomopathogens was analyzed. To determine if NF-kB signaling inhibitors could reduce resistance to orally provisioned entomopathogenic bacteria, cultures of each bacterium were grown overnight by shaking at room temperature. The following day, cultures of P. entomophila were standardized to an OD600 value of 2.3 (3×10^8 colony forming units/mL) and cultures of B. thuringiensis isralensis were standardized to an OD600 value of 2.2 (7×10^7 colony forming units/mL), based on their overnight growth across replicates. P. entomophila was then further diluted 1:100 in defibrinated rabbit blood, whereas B. thuringiensis israelensis was further diluted 1:50 in defibrinated rabbit blood due to its generally lower virulence. The evaluated inhibitors or DMSO diluent were added to the blood meal containing diluted bacteria to a final concentration of 10 ug/mL. The groups of bed bugs fed DMSO diluent in blood were included as controls. Groups of bed bugs consisting of roughly even numbers of adult male and female bed bugs that had not blood fed for at least seven days were provided access to treated blood meals using the artificial membrane system (Hemotek Ltd.) until fully engorged. Short-term mortality was then monitored over a period of three days. Three independent biological replicates with 10-14 insects per group were carried out and cumulative survival curves were compared using the Gehan-Breslow-Wilcoxon test.

Pseudomonas entomophila = assay: Direct effects of NF-kB signaling inhibitors on growth of P. entomophila cultures (OD600); format: cell-based; conditions: 10 μg/mL; LB medium; shaken overnight at room temperature
Description: as §1, §2

Cimex lectularius [4] = assay: Estimation of P. entomophila load in vivo in bed bugs (CFU/insect); conditions: 10 μg/mL inhibitor with P. entomophila in blood meal, 24 hours post-infection
Method: The bacterial load of entomopathogen was further analyzed to determine whether enhanced mortality during P. entomophila infection was associated with increased bacterial load (reduced resistance). For this analysis, adult male bed bugs that had not fed for at least seven days were provided access to blood meals containing P. entomophila with or without 10 μg/mL of IKK16 using the artificial membrane system (Hemotek Ltd.) until fully engorged. The two treatments were prepared as described in Example 3. After 24 hours, live and dead bed bugs from each infected treatment group were collected. Individual insects were surface sterilized by rinsing with 10% bleach and 70% ethanol and homogenized in sterile phosphate buffered saline (PBS). Homogenates were then serial diluted in PBS and plated on LB agar plates to estimate the load of P. entomophila bacteria expressed as colony forming units (CFU) per insect after 24 hours of incubation at 28° C. Because culturable bed bug commensals in the gut are minimal and slow growing, this methodology allows for the specific quantification of P. entomophila. Two independent biological replicates were conducted (15 individual insects examined per treatment group in total). The insects in each treatment were further subdivided into dead and live categories for analysis. […]

Cimex lectularius [5] = assay: Toxicity of NF-kB signaling inhibitors fed as lone agents to bed bugs (seven-day survivorship); format: in vivo; conditions: 5 μg/mL or 10 μg/mL in blood meal; 7 days; chi-square test p=0.54
Method: as §3
The bed bugs were fed four individual small molecule inhibitors of NF-kB signaling (BMS345541, IKK16, IMD0354, Takinib) alone or in combination with two different bacterial entomopathogens (Pseudomonas entomophila and Bacillus thuringiensis israelensis). […] The effects on both bed bug mortality and bacterial growth were assessed.
The toxicity of NF-kB signaling inhibitors was analyzed by feeding the inhibitors as lone agents to bed bugs. In particular, the four individual small molecule inhibitors of NF-kB signaling (BMS345541, IKK16, IMD0354, Takinib) were analyzed. […] Mortality was then monitored regularly over a period of seven days. […]

Rhodnius prolixus = conditions: cited from earlier work

## Cc1ccc2nc(NCCN)c3ncc(C)n3c2c1 [BMS345541, N1-(1,8-dimethylimidazo[1,2-a]quinoxalin-4-yl)ethane-1,2-diamine]
[1]
  growth of B. thuringiensis israelensis relative to DMSO control (OD600): did not affect the growth
Cimex lectularius [2]
  effect on mortality during infection with B. thuringiensis: little to no effect
Cimex lectularius [3]
  effect on mortality during P. entomophila infection: little to no effect
Pseudomonas entomophila
  growth of P. entomophila relative to DMSO control (OD600): did not affect the growth

## O=C(c1ccc(Nc2nccc(-c3cc4ccccc4s3)n2)cc1)N1CCC(N2CCCC2)CC1 [IKK16, (4-((4-(Benzo[b]thiophen-2-yl)pyrimidin-2-yl)amino)phenyl)(4-(pyrrolidin-1-yl)piperidin-1-yl)methanone]
[1]
  growth of B. thuringiensis israelensis relative to DMSO control (OD600): inhibited the growth
Cimex lectularius [3]
  effect on mortality during P. entomophila infection: significantly increased
Cimex lectularius [3]; 24 h, read-out: mortality at day 1
  mortality at 10 µg/mL: 74.3%
Cimex lectularius [3]; 48 h, read-out: mortality at day 2
  mortality at 10 µg/mL: 80%
Cimex lectularius [3]; 72 h, read-out: mortality at day 3
  mortality at 10 µg/mL: 82.9%
Pseudomonas entomophila
  growth of P. entomophila relative to DMSO control (OD600): did not affect the growth
Cimex lectularius [4]
  effect on tolerance (mortality with lower bacterial loads) in vivo: did not affect tolerance
Cimex lectularius [4]; ANOVA p=0.021
  P. entomophila load in live bed bugs versus live counterparts not treated with the inhibitor: higher loads

## O=C(Nc1cc(C(F)(F)F)cc(C(F)(F)F)c1)c1cc(Cl)ccc1O [IMD0354, N-(3,5-bis(trifluoromethyl)phenyl)-5-chloro-2-hydroxybenzamide]
[1]
  growth of B. thuringiensis israelensis relative to DMSO control (OD600): inhibited the growth
Cimex lectularius [5]
  direct toxicity to bed bugs (mortality relative to DMSO controls): not directly toxic
Pseudomonas entomophila
  growth of P. entomophila relative to DMSO control (OD600): inhibited the growth
Rhodnius prolixus
  expression of antimicrobial peptides: suppressed expression
  mortality during both bacterial and parasitic infections: increased mortality

## CCCn1/c(=N/C(=O)c2cccc(C(N)=O)c2)[nH]c2ccccc21 [Takinib, 3-N-(1-propylbenzimidazol-2-yl)benzene-1,3-dicarboxamide]
[1]
  growth of B. thuringiensis israelensis relative to DMSO control (OD600): did not affect the growth
Cimex lectularius [2]
  effect on mortality during infection with B. thuringiensis: little to no effect
Cimex lectularius [3]
  effect on mortality during P. entomophila infection: little to no effect
Pseudomonas entomophila
  growth of P. entomophila relative to DMSO control (OD600): did not affect the growth
